# Measurements taken from paper PMC7104723 (Cell Research, 2020).
# Non-standard residues stand in square brackets, D forms with d. Residues, ends and D or L forms follow the SMILES beside them. *: point of attachment. X1 = CC(C)CCC[C@@H](C)[C@H]1CC[C@H]2[C@@H]3CC=C4C[C@@H](OC(=O)C*)CC[C@]4(C)[C@H]3CC[C@]12C; Palmitoyl = CCCCCCCCCCCCCCCC(=O)*; PEG4 = NCCOCCOCCOCCOCCC(=O)O
# Tests used:
# SARS-CoV-2 S protein = SARS-CoV-2 S protein (Severe acute respiratory syndrome coronavirus 2, UniProt P0DTC2); experiment: cell-based; type: cell-based
# SARS-CoV-2 PsV = conditions: PsV, 72 h
SMILES,Inhibition of SARS-CoV-2 mediated cell–cell fusion at 2.5 μM (SARS-CoV-2 S protein),IC50 (SARS-CoV-2 PsV) [nM]
CC[C@H](C)[C@H](NC(=O)[C@H](C)NC(=O)[C@H](CCC(=O)O)NC(=O)[C@H](CCC(=O)O)NC(=O)[C@H](CC(C)C)NC(=O)[C@H](CCCCN)NC(=O)[C@H](CCCCN)NC(=O)[C@H](CCSC)NC(=O)[C@H](CCC(=O)O)NC(=O)[C@H](Cc1ccc(O)cc1)NC(=O)[C@H](CCC(=O)O)NC(=O)[C@H](CC(C)C)NC(=O)[C@H](CC(=O)O)NC(=O)[C@H](CC(C)C)NC(=O)[C@H](Cc1ccccc1)NC(=O)[C@@H](NC(=O)[C@@H](NC(=O)[C@H](CC(N)=O)NC(=O)[C@@H](NC(=O)[C@H](CCC(N)=O)NC(=O)[C@H](CC(=O)O)NC(=O)[C@H](CC(C)C)NC(=O)[C@@H](N)CO)[C@@H](C)CC)C(C)C)[C@@H](C)O)C(=O)N[C@@H](CCCCN)C(=O)N[C@@H](CCCCN)C(=O)N[C@@H](CC(C)C)C(=O)N[C@@H](CCC(=O)O)C(=O)N[C@@H](CCC(=O)O)C(=O)N[C@@H](CO)C(=O)N[C@@H](Cc1ccc(O)cc1)C(=O)N[C@H](C(=O)N[C@@H](CC(=O)O)C(=O)N[C@@H](CC(C)C)C(=O)N[C@@H](CCCCN)C(=O)N[C@@H](CCC(=O)O)C(=O)N[C@@H](CC(C)C)C(=O)NCCOCCOCCOCCOCCC(=O)N[C@@H](CSCC(=O)O[C@H]1CC[C@@]2(C)C(=CC[C@H]3[C@@H]4CC[C@H]([C@H](C)CCCC(C)C)[C@@]4(C)CC[C@@H]32)C1)C(N)=O)[C@@H](C)CC [EK1C] (H-SLDQINVTFLDLEYEMKKLEEAIKKLEESYIDLKEL[PEG4]C(X1)-NH2),completely inhibit,139
CC[C@H](C)[C@H](NC(=O)[C@H](C)NC(=O)[C@H](CCC(=O)O)NC(=O)[C@H](CCC(=O)O)NC(=O)[C@H](CC(C)C)NC(=O)[C@H](CCCCN)NC(=O)[C@H](CCCCN)NC(=O)[C@H](CCSC)NC(=O)[C@H](CCC(=O)O)NC(=O)[C@H](Cc1ccc(O)cc1)NC(=O)[C@H](CCC(=O)O)NC(=O)[C@H](CC(C)C)NC(=O)[C@H](CC(=O)O)NC(=O)[C@H](CC(C)C)NC(=O)[C@H](Cc1ccccc1)NC(=O)[C@@H](NC(=O)[C@@H](NC(=O)[C@H](CC(N)=O)NC(=O)[C@@H](NC(=O)[C@H](CCC(N)=O)NC(=O)[C@H](CC(=O)O)NC(=O)[C@H](CC(C)C)NC(=O)[C@@H](N)CO)[C@@H](C)CC)C(C)C)[C@@H](C)O)C(=O)N[C@@H](CCCCN)C(=O)N[C@@H](CCCCN)C(=O)N[C@@H](CC(C)C)C(=O)N[C@@H](CCC(=O)O)C(=O)N[C@@H](CCC(=O)O)C(=O)N[C@@H](CO)C(=O)N[C@@H](Cc1ccc(O)cc1)C(=O)N[C@H](C(=O)N[C@@H](CC(=O)O)C(=O)N[C@@H](CC(C)C)C(=O)N[C@@H](CCCCN)C(=O)N[C@@H](CCC(=O)O)C(=O)N[C@@H](CC(C)C)C(=O)NCC(=O)N[C@@H](CO)C(=O)NCC(=O)N[C@@H](CO)C(=O)NCC(=O)NCCOCCOCCOCCOCCOCCOCCOCCOCCOCCOCCOCCOCCOCCOCCOCCOCCOCCOCCOCCOCCOCCOCCOCCOCCC(=O)N[C@@H](CSCC(=O)O[C@H]1CC[C@@]2(C)C(=CC[C@H]3[C@@H]4CC[C@H]([C@H](C)CCCC(C)C)[C@@]4(C)CC[C@@H]32)C1)C(N)=O)[C@@H](C)CC [EK1C7],–,84.4
CC[C@H](C)[C@H](NC(=O)[C@H](C)NC(=O)[C@H](CCC(=O)O)NC(=O)[C@H](CCC(=O)O)NC(=O)[C@H](CC(C)C)NC(=O)[C@H](CCCCN)NC(=O)[C@H](CCCCN)NC(=O)[C@H](CCSC)NC(=O)[C@H](CCC(=O)O)NC(=O)[C@H](Cc1ccc(O)cc1)NC(=O)[C@H](CCC(=O)O)NC(=O)[C@H](CC(C)C)NC(=O)[C@H](CC(=O)O)NC(=O)[C@H](CC(C)C)NC(=O)[C@H](Cc1ccccc1)NC(=O)[C@@H](NC(=O)[C@@H](NC(=O)[C@H](CC(N)=O)NC(=O)[C@@H](NC(=O)[C@H](CCC(N)=O)NC(=O)[C@H](CC(=O)O)NC(=O)[C@H](CC(C)C)NC(=O)[C@@H](N)CO)[C@@H](C)CC)C(C)C)[C@@H](C)O)C(=O)N[C@@H](CCCCN)C(=O)N[C@@H](CCCCN)C(=O)N[C@@H](CC(C)C)C(=O)N[C@@H](CCC(=O)O)C(=O)N[C@@H](CCC(=O)O)C(=O)N[C@@H](CO)C(=O)N[C@@H](Cc1ccc(O)cc1)C(=O)N[C@H](C(=O)N[C@@H](CC(=O)O)C(=O)N[C@@H](CC(C)C)C(=O)N[C@@H](CCCCN)C(=O)N[C@@H](CCC(=O)O)C(=O)N[C@@H](CC(C)C)C(=O)NCC(=O)N[C@@H](CO)C(=O)NCC(=O)N[C@@H](CO)C(=O)NCC(=O)NCCOCCOCCOCCOCCOCCOCCOCCOCCOCCOCCOCCOCCC(=O)N[C@@H](CSCC(=O)O[C@H]1CC[C@@]2(C)C(=CC[C@H]3[C@@H]4CC[C@H]([C@H](C)CCCC(C)C)[C@@]4(C)CC[C@@H]32)C1)C(N)=O)[C@@H](C)CC [EK1C6],–,77.4
CC[C@H](C)[C@H](NC(=O)[C@H](C)NC(=O)[C@H](CCC(=O)O)NC(=O)[C@H](CCC(=O)O)NC(=O)[C@H](CC(C)C)NC(=O)[C@H](CCCCN)NC(=O)[C@H](CCCCN)NC(=O)[C@H](CCSC)NC(=O)[C@H](CCC(=O)O)NC(=O)[C@H](Cc1ccc(O)cc1)NC(=O)[C@H](CCC(=O)O)NC(=O)[C@H](CC(C)C)NC(=O)[C@H](CC(=O)O)NC(=O)[C@H](CC(C)C)NC(=O)[C@H](Cc1ccccc1)NC(=O)[C@@H](NC(=O)[C@@H](NC(=O)[C@H](CC(N)=O)NC(=O)[C@@H](NC(=O)[C@H](CCC(N)=O)NC(=O)[C@H](CC(=O)O)NC(=O)[C@H](CC(C)C)NC(=O)[C@@H](N)CO)[C@@H](C)CC)C(C)C)[C@@H](C)O)C(=O)N[C@@H](CCCCN)C(=O)N[C@@H](CCCCN)C(=O)N[C@@H](CC(C)C)C(=O)N[C@@H](CCC(=O)O)C(=O)N[C@@H](CCC(=O)O)C(=O)N[C@@H](CO)C(=O)N[C@@H](Cc1ccc(O)cc1)C(=O)N[C@H](C(=O)N[C@@H](CC(=O)O)C(=O)N[C@@H](CC(C)C)C(=O)N[C@@H](CCCCN)C(=O)N[C@@H](CCC(=O)O)C(=O)N[C@@H](CC(C)C)C(=O)NCC(=O)N[C@@H](CO)C(=O)NCC(=O)N[C@@H](CSCC(=O)O[C@H]1CC[C@@]2(C)C(=CC[C@H]3[C@@H]4CC[C@H]([C@H](C)CCCC(C)C)[C@@]4(C)CC[C@@H]32)C1)C(N)=O)[C@@H](C)CC [EK1C2],–,419
CC[C@H](C)[C@H](NC(=O)[C@H](C)NC(=O)[C@H](CCC(=O)O)NC(=O)[C@H](CCC(=O)O)NC(=O)[C@H](CC(C)C)NC(=O)[C@H](CCCCN)NC(=O)[C@H](CCCCN)NC(=O)[C@H](CCSC)NC(=O)[C@H](CCC(=O)O)NC(=O)[C@H](Cc1ccc(O)cc1)NC(=O)[C@H](CCC(=O)O)NC(=O)[C@H](CC(C)C)NC(=O)[C@H](CC(=O)O)NC(=O)[C@H](CC(C)C)NC(=O)[C@H](Cc1ccccc1)NC(=O)[C@@H](NC(=O)[C@@H](NC(=O)[C@H](CC(N)=O)NC(=O)[C@@H](NC(=O)[C@H](CCC(N)=O)NC(=O)[C@H](CC(=O)O)NC(=O)[C@H](CC(C)C)NC(=O)[C@@H](N)CO)[C@@H](C)CC)C(C)C)[C@@H](C)O)C(=O)N[C@@H](CCCCN)C(=O)N[C@@H](CCCCN)C(=O)N[C@@H](CC(C)C)C(=O)N[C@@H](CCC(=O)O)C(=O)N[C@@H](CCC(=O)O)C(=O)N[C@@H](CO)C(=O)N[C@@H](Cc1ccc(O)cc1)C(=O)N[C@H](C(=O)N[C@@H](CC(=O)O)C(=O)N[C@@H](CC(C)C)C(=O)N[C@@H](CCCCN)C(=O)N[C@@H](CCC(=O)O)C(=O)N[C@@H](CC(C)C)C(=O)NCC(=O)N[C@@H](CO)C(=O)NCC(=O)N[C@@H](CO)C(=O)NCC(=O)NCCOCCOCCOCCOCCOCCOCCOCCOCCC(=O)N[C@@H](CSCC(=O)O[C@H]1CC[C@@]2(C)C(=CC[C@H]3[C@@H]4CC[C@H]([C@H](C)CCCC(C)C)[C@@]4(C)CC[C@@H]32)C1)C(N)=O)[C@@H](C)CC [EK1C5],–,31.3
CC[C@H](C)[C@H](NC(=O)[C@H](C)NC(=O)[C@H](CCC(=O)O)NC(=O)[C@H](CCC(=O)O)NC(=O)[C@H](CC(C)C)NC(=O)[C@H](CCCCN)NC(=O)[C@H](CCCCN)NC(=O)[C@H](CCSC)NC(=O)[C@H](CCC(=O)O)NC(=O)[C@H](Cc1ccc(O)cc1)NC(=O)[C@H](CCC(=O)O)NC(=O)[C@H](CC(C)C)NC(=O)[C@H](CC(=O)O)NC(=O)[C@H](CC(C)C)NC(=O)[C@H](Cc1ccccc1)NC(=O)[C@@H](NC(=O)[C@@H](NC(=O)[C@H](CC(N)=O)NC(=O)[C@@H](NC(=O)[C@H](CCC(N)=O)NC(=O)[C@H](CC(=O)O)NC(=O)[C@H](CC(C)C)NC(=O)[C@@H](N)CO)[C@@H](C)CC)C(C)C)[C@@H](C)O)C(=O)N[C@@H](CCCCN)C(=O)N[C@@H](CCCCN)C(=O)N[C@@H](CC(C)C)C(=O)N[C@@H](CCC(=O)O)C(=O)N[C@@H](CCC(=O)O)C(=O)N[C@@H](CO)C(=O)N[C@@H](Cc1ccc(O)cc1)C(=O)N[C@H](C(=O)N[C@@H](CC(=O)O)C(=O)N[C@@H](CC(C)C)C(=O)N[C@@H](CCCCN)C(=O)N[C@@H](CCC(=O)O)C(=O)N[C@@H](CC(C)C)C(=O)N[C@@H](CSCC(=O)O[C@H]1CC[C@@]2(C)C(=CC[C@H]3[C@@H]4CC[C@H]([C@H](C)CCCC(C)C)[C@@]4(C)CC[C@@H]32)C1)C(N)=O)[C@@H](C)CC [EK1C1] (H-SLDQINVTFLDLEYEMKKLEEAIKKLEESYIDLKELC(X1)-NH2),–,480
CCCCCCCCCCCCCCCC(=O)SC[C@H](NC(=O)CCOCCOCCOCCOCCNC(=O)[C@H](CC(C)C)NC(=O)[C@H](CCC(=O)O)NC(=O)[C@H](CCCCN)NC(=O)[C@H](CC(C)C)NC(=O)[C@H](CC(=O)O)NC(=O)[C@@H](NC(=O)[C@H](Cc1ccc(O)cc1)NC(=O)[C@H](CO)NC(=O)[C@H](CCC(=O)O)NC(=O)[C@H](CCC(=O)O)NC(=O)[C@H](CC(C)C)NC(=O)[C@H](CCCCN)NC(=O)[C@H](CCCCN)NC(=O)[C@@H](NC(=O)[C@H](C)NC(=O)[C@H](CCC(=O)O)NC(=O)[C@H](CCC(=O)O)NC(=O)[C@H](CC(C)C)NC(=O)[C@H](CCCCN)NC(=O)[C@H](CCCCN)NC(=O)[C@H](CCSC)NC(=O)[C@H](CCC(=O)O)NC(=O)[C@H](Cc1ccc(O)cc1)NC(=O)[C@H](CCC(=O)O)NC(=O)[C@H](CC(C)C)NC(=O)[C@H](CC(=O)O)NC(=O)[C@H](CC(C)C)NC(=O)[C@H](Cc1ccccc1)NC(=O)[C@@H](NC(=O)[C@@H](NC(=O)[C@H](CC(N)=O)NC(=O)[C@@H](NC(=O)[C@H](CCC(N)=O)NC(=O)[C@H](CC(=O)O)NC(=O)[C@H](CC(C)C)NC(=O)[C@@H](N)CO)[C@@H](C)CC)C(C)C)[C@@H](C)O)[C@@H](C)CC)[C@@H](C)CC)C(N)=O [EK1P] (H-SLDQINVTFLDLEYEMKKLEEAIKKLEESYIDLKEL[PEG4]C(Palmitoyl)-NH2),completely inhibit,–
